Measurements as given in patent publication US20080269213A1, “8-Hydroxyquinoline compounds and methods thereof” (Wyeth, priority 2006, published 2008).
Read-outs that look alike come from different tables or passages of the source. Each block holds one molecule with its values, some of them ahead of it.

Experiments:
[1] = molecular target: T1, recombinant human Aggrecanase-2 Agg2-Phe628 (Homo sapiens, UniProt Q9UNA0); experiment: Aggrecanase 2 in vitro enzyme assay (Agg-2 FRET, quenched fluorescent peptide substrate); assay type: biochemical; set-up: purified recombinant human Aggrecanase-2 Agg2-Phe628 (MW=41,737); This is a truncated form of full-length human aggrecanase-2; made in house; host or cells: CHO cells; settings: for inhibition at 11 µM: @ 11000 nM; for Agg-2 FRET Median PCT INHIB: concentration not given
T1 sequence (Q9UNA0 262-628 limits assumed): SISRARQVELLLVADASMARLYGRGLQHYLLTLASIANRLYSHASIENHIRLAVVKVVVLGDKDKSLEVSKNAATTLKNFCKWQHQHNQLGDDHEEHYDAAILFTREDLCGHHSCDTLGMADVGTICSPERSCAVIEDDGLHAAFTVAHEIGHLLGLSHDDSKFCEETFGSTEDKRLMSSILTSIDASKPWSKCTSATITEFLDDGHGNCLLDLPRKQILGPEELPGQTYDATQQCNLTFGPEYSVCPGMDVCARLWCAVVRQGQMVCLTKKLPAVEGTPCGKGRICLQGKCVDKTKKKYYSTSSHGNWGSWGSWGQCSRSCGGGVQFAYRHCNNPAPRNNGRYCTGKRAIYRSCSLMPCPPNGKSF
How it was run: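 Kinetic fluorescence (λex 340, λem 420 nm) monitored over 40 min at 30 °C after adding 25 μM final Abz/Dnp brevican-based quenched peptide. Enzyme: recombinant truncated human Agg2-Phe628 from CHO, 0.5 μg/ml final, mixed with inhibitor first; buffer HEPES pH 7.5 with NaCl, CaCl2, CHAPS, glycerol; compounds in duplicate.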

[2] = molecular target: T2, Agg-1 (Homo sapiens, UniProt O75173); experiment: Agg-1 FRET assay; assay type: biochemical; settings: for inhibition at 22 µM: @ 22000 nM; for inhibition at 7.4 µM: @ 7400 nM; for IC50: read-out: Agg1 IC50; for inhibition at 66.7 µM: @ 66700 nM; for inhibition at 0.8 µM: @ 800 nM
T2 sequence (O75173 213-837): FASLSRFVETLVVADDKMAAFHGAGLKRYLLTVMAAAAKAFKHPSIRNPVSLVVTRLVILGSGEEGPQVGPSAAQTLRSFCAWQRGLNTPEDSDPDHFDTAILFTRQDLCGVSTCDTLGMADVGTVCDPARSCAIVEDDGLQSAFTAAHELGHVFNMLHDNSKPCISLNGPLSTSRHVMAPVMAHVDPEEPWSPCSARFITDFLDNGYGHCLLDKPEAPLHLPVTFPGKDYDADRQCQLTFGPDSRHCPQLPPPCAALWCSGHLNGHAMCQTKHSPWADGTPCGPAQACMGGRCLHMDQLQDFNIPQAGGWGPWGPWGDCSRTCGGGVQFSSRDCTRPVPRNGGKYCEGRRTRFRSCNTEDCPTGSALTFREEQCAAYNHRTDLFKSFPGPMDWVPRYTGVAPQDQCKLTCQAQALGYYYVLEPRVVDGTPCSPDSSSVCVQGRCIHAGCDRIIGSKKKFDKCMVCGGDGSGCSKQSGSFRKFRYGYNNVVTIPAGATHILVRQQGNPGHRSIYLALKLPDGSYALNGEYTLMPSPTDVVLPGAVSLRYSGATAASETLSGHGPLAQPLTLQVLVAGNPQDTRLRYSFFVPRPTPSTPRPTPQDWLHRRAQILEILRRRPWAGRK
From the text: The Agg-1/Agg-2 FRET data for N-[(8-hydroxyquinolin-2-yl)(phenyl)methyl]-2-phenoxyacetamide and 2-{[(phenoxyacetyl)amino](phenyl)methyl}quinolin-8-yl phenoxyacetate is presented in Table 1.

[3] = read-out: Agg-2 FRET Median IC50

SMILES: COc1ccc(Oc2cccc(C(NC(=O)COc3ccccc3)c3cc(Cl)c4cccnc4c3O)c2)cc1 (stereo not drawn) [Example 128, N-{(5-chloro-8-hydroxyquinolin-7-yl)[3-(4-methoxyphenoxy)phenyl]methyl}-2-phenoxyacetamide]
IC50 ([1]; read-out: Agg2 IC50): 1.1 µM
inhibition at 7.4 µM ([2]; read-out: Agg1 %): 57%

SMILES: O=C(COc1ccccc1)NC(c1cccc(Oc2ccc(Cl)cc2)c1)c1cc(Cl)c2cccnc2c1O (stereo not drawn) [Example 129, N-{(5-chloro-8-hydroxyquinolin-7-yl)[3-(4-chlorophenoxy)phenyl]methyl}-2-phenoxyacetamide]
inhibition at 11 µM [1]: 52%
inhibition at 22 µM ([2]; read-out: Agg1 %): 51%

SMILES: O=C(COc1ccccc1)NC(c1cccc(Oc2ccccc2)c1)c1cc(Cl)c2cccnc2c1O (stereo not drawn) [Example 131, N-[(5-chloro-8-hydroxyquinolin-7-yl)(3-phenoxyphenyl)methyl]-2-phenoxyacetamide]
IC50 ([1]; read-out: Agg2 IC50): 4.1 µM
IC50 [2]: > 67 µM

SMILES: CCCCN(CCCC)c1ccc(C(NC(=O)COc2ccccc2)c2cc(Cl)c3cccnc3c2O)cc1 (stereo not drawn) [Example 136, N-{(5-chloro-8-hydroxyquinolin-7-yl)[4-(dibutylamino)phenyl]methyl}-2-phenoxyacetamide]
inhibition at 33.3 µM ([1]; @ 33300 nM): 52%
inhibition at 66.7 µM ([2]; read-out: Agg1 %): 40%

SMILES: O=C(COc1ccccc1)NC(c1ccc(C#Cc2ccccc2)cc1)c1cc(Cl)c2cccnc2c1O (stereo not drawn) [Example 141, N-{(5-chloro-8-hydroxyquinolin-7-yl)[4-(phenylethynyl)phenyl]methyl}-2-phenoxyacetamide]
inhibition at […] ([1]; @ 1200 nM): 58%
Agg-2 FRET Median PCT INHIB [1]: 50%
inhibition at 7.4 µM ([2]; read-out: Agg1 %): 48%

SMILES: CC(C)(C)c1csc(-c2ccc(C(NC(=O)COc3ccccc3)c3cc(Cl)c4cccnc4c3O)cc2)n1 (stereo not drawn) [Example 146, N-[[4-(4-tert-butyl-1,3-thiazol-2-yl)phenyl](5-chloro-8-hydroxyquinolin-7-yl)methyl]-2-phenoxyacetamide]
inhibition at 11 µM [1]: 49%
inhibition at 66.7 µM ([2]; read-out: Agg1 %): 42%

SMILES: O=C(COc1ccccc1)NC(c1cc2n(n1)CSC2)c1cc(Cl)c2cccnc2c1O (stereo not drawn) [Example 174, N-[(5-chloro-8-hydroxyquinolin-7-yl)(4H-pyrazolo[1,5-c][1,3]thiazol-2-yl)methyl]-2-phenoxyacetamide]
inhibition at […] ([1]; @ 1900 nM): 40%
Agg1 % ([2]; @ 7000-22000 nM): 42% @ 7000-22000

SMILES: O=C(COc1ccccc1)NC(c1cn2c(n1)COCC2)c1cc(Cl)c2cccnc2c1O (stereo not drawn) [Example 178, N-[(5-chloro-8-hydroxyquinolin-7-yl)(5,6-dihydro-8H-imidazo[2,1-c][1,4]oxazin-2-yl)methyl]-2-phenoxyacetamide]
IC50 ([1]; read-out: Agg2 IC50): 6.2 µM
IC50 [2]: > 20 µM

SMILES: O=C(COc1ccccc1)NC(c1cc2n(n1)CCC2)c1cc(Cl)c2cccnc2c1O (stereo not drawn) [Example 179, N-[(5-chloro-8-hydroxyquinolin-7-yl)(5,6-dihydro-4H-pyrrolo[1,2-b]pyrazol-2-yl)methyl]-2-phenoxyacetamide]
IC50 ([1]; read-out: Agg2 IC50): ~2.5 µM
IC50 [2]: > 20 µM

SMILES: O=C(NC(c1ccccn1)c1cc(Cl)c2cccnc2c1O)OCc1ccccc1 (stereo not drawn) [Example 183, benzyl [(5-chloro-8-hydroxyquinolin-7-yl)(pyridin-2-yl)methyl]carbamate]
Agg-2 FRET Median PCT INHIB [1]: 50%
IC50 ([1]; read-out: Agg2 IC50): ~2.5 µM
IC50 [2]: > 67 µM

SMILES: C=CC(NC(=O)COc1ccccc1)c1cc(Cl)c2cccnc2c1O (stereo not drawn) [Example 186, N-[1-(5-chloro-8-hydroxyquinolin-7-yl)prop-2-en-1-yl]-2-phenoxyacetamide]
inhibition at 3.7 µM ([1]; @ 3700 nM): 38%
inhibition at 0.8 µM ([2]; read-out: Agg1 %): 50%

SMILES: C/C=C/C(NC(=O)COc1ccccc1)c1cc(Cl)c2cccnc2c1O (stereo not drawn) [Example 187, N-[(2E)-1-(5-chloro-8-hydroxyquinolin-7-yl)but-2-en-1-yl]-2-phenoxyacetamide]
IC50 ([1]; read-out: Agg2 IC50): 2.53 µM
IC50 [1, 3]: 2.53 µM
inhibition at 0.8 µM ([2]; read-out: Agg1 %): 40%

Next, values leading:

IC50 ([1]; read-out: Agg2 IC50): 2.3 µM
IC50 [1, 3]: 2.34 µM
inhibition at 667 µM ([2]; @ 667000 nM, read-out: Agg1 %): 48%
SMILES: COc1ccccc1C(NC(=O)COc1ccccc1)c1cc(Cl)c2cccnc2c1O (stereo not drawn) [Example 122, N-[(5-chloro-8-hydroxyquinolin-7-yl)(2-methoxyphenyl)methyl]-2-phenoxyacetamide]

IC50 ([1]; read-out: Agg2 IC50): 1.8 µM
inhibition at 22 µM ([2]; read-out: Agg1 %): 44%
SMILES: COc1cccc(C(NC(=O)COc2ccccc2)c2cc(Cl)c3cccnc3c2O)c1 (stereo not drawn) [Example 126, N-[(5-chloro-8-hydroxyquinolin-7-yl)(3-methoxyphenyl)methyl]-2-phenoxyacetamide]

inhibition at 33 µM ([1]; @ 33000 nM): 50%
IC50 [1, 3]: 1.45 µM
inhibition at 22 µM ([2]; read-out: Agg1 %): 41%
SMILES: CCOC(=O)Cc1cccc(C(NC(=O)COc2ccccc2)c2cc(Cl)c3cccnc3c2O)c1 (stereo not drawn) [Example 127, ethyl(3-{(5-chloro-8-hydroxyquinolin-7-yl)[(phenoxyacetyl)amino]methyl}phenyl)acetate]

inhibition at 7.4 µM ([1]; @ 7400 nM): 58%
inhibition at 22 µM ([2]; read-out: Agg1 %): 52%
SMILES: Cc1ccc(Oc2cccc(C(NC(=O)COc3ccccc3)c3cc(Cl)c4cccnc4c3O)c2)cc1 (stereo not drawn) [Example 130, N-{(5-chloro-8-hydroxyquinolin-7-yl)[3-(4-methylphenoxy)phenyl]methyl}-2-phenoxyacetamide]

IC50 ([1]; read-out: Agg2 IC50): 1.65 µM
inhibition at […] ([2]; @ 2500 nM, read-out: Agg1 %): 54%
SMILES: CN(C)c1ccc(C(NC(=O)COc2ccccc2)c2cc(Cl)c3cccnc3c2O)cc1 (stereo not drawn) [Example 134, N-{(5-chloro-8-hydroxyquinolin-7-yl)[4-(dimethylamino)phenyl]methyl}-2-phenoxyacetamide]

IC50 ([1]; read-out: Agg2 IC50): 2.8 µM
IC50 [2]: 22 to 67 µM
SMILES: CCN(CC)c1ccc(C(NC(=O)COc2ccccc2)c2cc(Cl)c3cccnc3c2O)cc1 (stereo not drawn) [Example 135, N-{(5-chloro-8-hydroxyquinolin-7-yl)[4-(diethylamino)phenyl]methyl}-2-phenoxyacetamide]

IC50 ([1]; read-out: Agg2 IC50): 1.2 µM
IC50 [2]: 5.8 µM
SMILES: O=C(COc1ccccc1)NC(c1ccc(-n2cccn2)cc1)c1cc(Cl)c2cccnc2c1O (stereo not drawn) [Example 145, N-{(5-chloro-8-hydroxyquinolin-7-yl)[4-(1H-pyrazol-1-yl)phenyl]methyl}-2-phenoxyacetamide]

IC50 ([1]; read-out: Agg2 IC50): 1.07 µM
IC50 [1, 3]: 1.07 µM
IC50 [2]: 4.68 µM
SMILES: O=C(COc1ccccc1)NC(c1ccc(-c2csnn2)cc1)c1cc(Cl)c2cccnc2c1O (stereo not drawn) [Example 147, N-{(5-chloro-8-hydroxyquinolin-7-yl)[4-(1,2,3-thiadiazol-4-yl)phenyl]methyl}-2-phenoxyacetamide]

IC50 ([1]; read-out: Agg2 IC50): 2.3 µM
inhibition at 22.2 µM ([2]; @ 22200 nM, read-out: Agg1 %): 50%
SMILES: COc1ccc2cc(C(NC(=O)COc3ccccc3)c3cc(Cl)c4cccnc4c3O)ccc2c1 (stereo not drawn) [Example 165, N-[(5-chloro-8-hydroxyquinolin-7-yl)(6-methoxy-2-naphthyl)methyl]-2-phenoxyacetamide]

IC50 ([1]; read-out: Agg2 IC50): 0.4 to 1.2 µM
inhibition at 66.7 µM ([2]; read-out: Agg1 %): 49%
SMILES: O=C(COc1ccccc1)NC(c1cc2ccccc2o1)c1cc(Cl)c2cccnc2c1O (stereo not drawn) [Example 168, N-[1-benzofuran-2-yl(5-chloro-8-hydroxyquinolin-7-yl)methyl]-2-phenoxyacetamide]

IC50 ([1]; read-out: Agg2 IC50): 2.4 µM
inhibition at 7.4 µM ([2]; read-out: Agg1 %): 43%
SMILES: O=C(COc1ccccc1)NC(c1ccc2c(c1)CCO2)c1cc(Cl)c2cccnc2c1O (stereo not drawn) [Example 170, N-[(5-chloro-8-hydroxyquinolin-7-yl)(2,3-dihydro-1-benzofuran-5-yl)methyl]-2-phenoxyacetamide]

IC50 ([1]; read-out: Agg2 IC50): 1.4 µM
inhibition at 66.7 µM ([2]; read-out: Agg1 %): 55%
SMILES: CC1(C)CCc2cc(C(NC(=O)COc3ccccc3)c3cc(Cl)c4cccnc4c3O)ccc2O1 (stereo not drawn) [Example 171, N-[(5-chloro-8-hydroxyquinolin-7-yl)(2,2-dimethyl-3,4-dihydro-2H-chromen-6-yl)methyl]-2-phenoxyacetamide]

IC50 ([1]; read-out: Agg2 IC50): 1.3 µM
IC50 [1, 3]: 1.3 µM
IC50 [2]: > 20 µM
SMILES: Cn1nnc2cc(C(NC(=O)COc3ccccc3)c3cc(Cl)c4cccnc4c3O)ccc21 (stereo not drawn) [Example 177, N-[(5-chloro-8-hydroxyquinolin-7-yl)(1-methyl-1H-1,2,3-benzotriazol-5-yl)methyl]-2-phenoxyacetamide]
